How the values were obtained:
[1] = biological target: T1, UDP-glucuronosyltransferase 1A9 (Homo sapiens, UniProt O60656); test: Activity of human recombinant UGT1A9 expressed in baculovirus-infected insect cells assessed as intrinsic clearance for enzyme-mediated glucuronide formation per mg of protein at 1 to 250 uM after 5 mins by Michaelis-Menten plot analysis in presence of UDPGA; assay type: ADME
T1 sequence (O60656 whole entry): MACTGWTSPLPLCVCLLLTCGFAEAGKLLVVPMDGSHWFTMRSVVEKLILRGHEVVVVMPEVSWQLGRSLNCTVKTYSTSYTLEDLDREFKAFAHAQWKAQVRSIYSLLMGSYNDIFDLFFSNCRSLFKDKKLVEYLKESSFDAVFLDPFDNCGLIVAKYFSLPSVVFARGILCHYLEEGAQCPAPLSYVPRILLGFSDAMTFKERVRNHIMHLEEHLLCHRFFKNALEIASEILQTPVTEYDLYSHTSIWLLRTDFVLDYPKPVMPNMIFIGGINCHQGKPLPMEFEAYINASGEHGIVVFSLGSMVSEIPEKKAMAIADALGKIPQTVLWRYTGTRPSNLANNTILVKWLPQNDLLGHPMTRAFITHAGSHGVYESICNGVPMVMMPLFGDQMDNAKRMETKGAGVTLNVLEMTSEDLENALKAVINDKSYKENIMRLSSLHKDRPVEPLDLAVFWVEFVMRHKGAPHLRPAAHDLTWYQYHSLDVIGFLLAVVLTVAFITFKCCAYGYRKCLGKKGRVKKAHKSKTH

[2] = system: Liver microsome; test: Intrinsic clearance in human liver microsomes assessed per mg of protein at 1 to 250 uM after 10 mins in presence of UDPGA; assay type: ADME
[3] = biological target: T2, UDP-glucuronosyltransferase 1A7 (Homo sapiens, UniProt Q9HAW7); test: Activity of human recombinant UGT1A7 expressed in baculovirus-infected insect cells assessed as enzyme-mediated glucuronidation per mg of protein after 10 mins in presence of UDPGA; assay type: ADME
T2 sequence (Q9HAW7 whole entry): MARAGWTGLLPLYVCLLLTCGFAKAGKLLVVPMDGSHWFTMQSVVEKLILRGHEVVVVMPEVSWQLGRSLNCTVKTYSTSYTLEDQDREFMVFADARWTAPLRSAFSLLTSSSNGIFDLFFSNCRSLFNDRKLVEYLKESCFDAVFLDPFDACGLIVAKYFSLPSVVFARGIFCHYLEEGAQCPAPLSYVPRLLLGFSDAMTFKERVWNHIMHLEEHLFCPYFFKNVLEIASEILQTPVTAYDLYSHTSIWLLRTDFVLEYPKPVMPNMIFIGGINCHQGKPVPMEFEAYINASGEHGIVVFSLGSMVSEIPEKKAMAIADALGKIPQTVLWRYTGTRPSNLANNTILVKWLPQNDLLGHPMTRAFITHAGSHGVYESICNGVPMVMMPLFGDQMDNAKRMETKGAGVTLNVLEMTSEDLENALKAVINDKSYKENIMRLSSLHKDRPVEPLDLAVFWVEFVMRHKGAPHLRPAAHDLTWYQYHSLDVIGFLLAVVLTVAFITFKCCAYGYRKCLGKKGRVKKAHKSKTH

[4] = biological target: T3, UDP-glucuronosyltransferase 1A4 (Homo sapiens, UniProt P22310); test: Activity of human recombinant UGT1A4 expressed in baculovirus-infected insect cells assessed as enzyme-mediated glucuronidation per mg of protein after 10 mins in presence of UDPGA; assay type: ADME
T3 sequence (P22310 whole entry): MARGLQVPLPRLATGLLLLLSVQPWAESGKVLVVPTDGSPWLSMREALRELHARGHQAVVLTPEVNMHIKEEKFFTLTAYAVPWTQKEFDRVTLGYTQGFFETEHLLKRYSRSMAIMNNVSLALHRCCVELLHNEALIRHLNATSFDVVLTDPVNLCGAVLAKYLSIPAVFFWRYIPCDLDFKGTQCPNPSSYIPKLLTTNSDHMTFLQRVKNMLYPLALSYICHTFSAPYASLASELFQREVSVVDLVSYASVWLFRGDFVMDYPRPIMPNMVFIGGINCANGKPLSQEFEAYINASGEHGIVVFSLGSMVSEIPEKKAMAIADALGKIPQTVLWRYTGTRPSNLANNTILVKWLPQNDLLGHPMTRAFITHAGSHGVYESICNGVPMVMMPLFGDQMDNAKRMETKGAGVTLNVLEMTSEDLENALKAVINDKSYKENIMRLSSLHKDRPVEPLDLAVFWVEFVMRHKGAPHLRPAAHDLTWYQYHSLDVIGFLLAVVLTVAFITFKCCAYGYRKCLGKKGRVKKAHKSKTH

[5] = biological target: T2, UDP-glucuronosyltransferase 1A7; test: Activity of human recombinant UGT1A7 expressed in baculovirus-infected insect cells assessed as intrinsic clearance for enzyme-mediated glucuronide formation per mg of protein at 1 to 250 uM after 10 mins by Michaelis-Menten plot analysis in presence of UDPGA; assay type: ADME
[6] = biological target: T4, UDP-glucuronosyltransferase 1A8 (Homo sapiens, UniProt Q9HAW9); test: Inhibition of human recombinant UGT1A8 after 10 mins in presence of UDPGA; assay type: ADME
T4 sequence (Q9HAW9 whole entry): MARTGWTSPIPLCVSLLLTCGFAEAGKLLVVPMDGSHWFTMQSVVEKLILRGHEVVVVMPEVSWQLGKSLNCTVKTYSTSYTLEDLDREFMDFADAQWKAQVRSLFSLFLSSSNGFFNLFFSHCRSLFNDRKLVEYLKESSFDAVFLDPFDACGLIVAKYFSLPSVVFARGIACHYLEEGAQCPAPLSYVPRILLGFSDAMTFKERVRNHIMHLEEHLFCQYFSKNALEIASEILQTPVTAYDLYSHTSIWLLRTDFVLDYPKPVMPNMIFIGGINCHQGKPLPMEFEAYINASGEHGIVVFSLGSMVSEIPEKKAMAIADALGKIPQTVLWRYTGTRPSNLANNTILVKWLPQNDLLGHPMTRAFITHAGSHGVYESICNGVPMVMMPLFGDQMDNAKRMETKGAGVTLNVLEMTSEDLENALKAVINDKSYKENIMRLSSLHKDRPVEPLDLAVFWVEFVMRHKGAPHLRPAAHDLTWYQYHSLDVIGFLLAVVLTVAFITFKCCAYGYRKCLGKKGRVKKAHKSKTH

[7] = Ratio of Km for drug metabolism in human liver microsomes to Km for human recombinant UGT-mediated drug metabolism; assay type: ADME; conditions: recombinant enzyme
[8] = Fraction unbound incubation mixture containing human recombinant UGT1A9 at 1 to 250 uM after 10 mins by ultrafiltration method in presence of 0.5% fatty acid free BSA
[9] = Fraction unbound incubation mixture containing human recombinant UGT1A9 at 1 to 250 uM after 10 mins by ultrafiltration method in presence of 2% fatty acid free BSA
[10] = Drug metabolism in human liver microsomes assessed as glucuronidation after 10 mins by Michaelis-Menten plot analysis in presence of UDPGA and 0.5% fatty acid free BSA; assay type: ADME; conditions: read-out: Km(unbound)

COc1ccc(C(=O)Nc2cccc(O)c2NC(=O)c2ccc(N3CCCN(C)CC3)cc2)cc1.O=C(O)CCC(=O)O
clearance [1]: 132 µL/min/mg | CLint [2]: 8.71 µL/min/mg | Drug metabolism [3]: 0.251 nmol/min/mg | Drug metabolism [4]: < 0.01 nmol/min/mg | clearance [5]: 12.3 µL/min/mg | Ki [6]: 354 µM | Ratio [7]: 4.2 | Fu [8]: 0.553 | Fu [9]: 0.237 | Km at 10 min [10]: 17.7 µM
